biological target: T1, L-amino-acid oxidase (Homo sapiens, UniProt Q96RQ9); assay: IL4I1 Enzymatic Assay
T1 sequence (Q96RQ9 whole entry): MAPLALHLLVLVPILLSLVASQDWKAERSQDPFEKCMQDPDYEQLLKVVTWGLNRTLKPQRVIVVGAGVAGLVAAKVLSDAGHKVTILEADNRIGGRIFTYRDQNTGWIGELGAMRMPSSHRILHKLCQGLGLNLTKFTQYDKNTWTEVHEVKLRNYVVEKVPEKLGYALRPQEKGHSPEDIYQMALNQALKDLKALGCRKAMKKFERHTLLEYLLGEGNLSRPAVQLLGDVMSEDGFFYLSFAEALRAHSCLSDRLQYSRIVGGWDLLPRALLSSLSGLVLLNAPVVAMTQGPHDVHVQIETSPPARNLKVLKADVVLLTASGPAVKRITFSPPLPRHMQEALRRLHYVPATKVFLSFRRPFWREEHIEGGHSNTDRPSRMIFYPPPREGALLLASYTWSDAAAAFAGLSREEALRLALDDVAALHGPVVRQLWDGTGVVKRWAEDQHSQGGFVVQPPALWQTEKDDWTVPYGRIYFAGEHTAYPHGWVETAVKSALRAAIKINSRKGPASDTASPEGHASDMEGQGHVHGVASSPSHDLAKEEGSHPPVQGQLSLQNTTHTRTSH
Method: nterleukin 4 inducible protein 1 (IL4I1) is an L-amino oxidase that catalyzes the oxidation of aromatic residues (Phe, Trp and Tyr): L-amino acid+H2O+O2→2-oxo acid+NH3+H2O2. Equal molar of H2O2 and the corresponding alpha-ketoacid are produced when IL4I1 and substrate are added. In this assay, the hydrogen peroxide generated by IL4I1 are then detected through a coupled reaction with Amplex Red (10-acetyl-3,7-dihydroxyphenoxazine) and […] (HRP) to produce Resorufin product that could be detected in the form of fluorescence signals. The assessment of the inhibitory effect of small molecules (EC50) on IL4I1 is measured by the effectiveness of the compounds to inhibit the production of H2O2.Using this assay, the potency (EC50) of each compound was determined from a ten-point (1:3 serial dilution; top compound concentration of 10000 nM) titration curve using the following outlined procedure. To each well of a black flat-bottom Greiner (Cat #781076) 384 well-plate, 25 nL of compound (0.1% DMSO in final assay volume of 25 μL) was dispensed, followed by the addition of 12.5 μL of 1× assay buffer (50 mM Hepes 7.0 and 0.005% Tween20 (Sigma, Cat #P8341; low peroxide grade)) containing 2 nM of recombinant IL4I1 (R&D Systems, Cat #5684-AO-020). Plates were placed in an ambient temperature humidified chamber for a four-hour pre-incubation with compound. Subsequently, each reaction was initiated by the addition of 12.5 μL 1× assay buffer containing 2 mM of each aromatic amino acids (Phe/Tyr/Trp), 0.1 mM Amplex Red and 2 U/mL of HRP. The final reaction in each well of 25 μL consists of 1 nM of IL4I1, 1 mM of each residues (Phe, Tyr and Trp), 0.05 mM Amplex Red and 1 U/mL of HRP. It should be noted that the concentrations of Amplex Red and HRP used here are in excess such that the conversion of H2O2 to Resorufin product occurs instantaneously and non-rate limiting.

EC50 | Compound
154 nM | Cn1c(=O)c(Cc2ccc(Cc3nnco3)cc2)cc2ccccc21 [US20240287022, Example 145]
1.5 nM | O=c1[nH]c2ccncc2cc1Cc1ccc2scnc2c1 [US20240287022, Example 114]
8.2 nM | O=c1[nH]c2ccccc2cc1Cc1ccc(C2(F)CNC2)cc1 [US20240287022, Example 76]
14.4 nM | N#CCc1ccc(Cc2cc3ccccc3[nH]c2=O)cn1 [US20240287022, Example 93]

From BindingDB's records for patent US20240287022 (Merck Sharp & Dohme, 2024)
